# From US12552785B2, “Pyrazolo[1,5-α]pyridine derivative, preparation method therefor, and composition and use thereof” (SHENZHEN ZHONGGE BIOLOGICAL TECHNOLOGY CO., LTD., priority 2020, dated 2026)
# Assays:
# Ba/F3-KIF5B-RET cell = molecular target: T1, Ba/F3-KIF5B-RET cell (Homo sapiens, UniProt P07949); experiment: CellTiter-Glo luminescence assay for inhibitory activity against Ba/F3-KIF5B-RET cell; format: cell-based; conditions: Ba/F3-KIF5B-RET cells, 72 h
# T1 construct: fused on or other part: P33176 (Kinesin-1 heavy chain)
# T1 sequence (P07949 whole entry, stated change not applied, the tested form may be a part): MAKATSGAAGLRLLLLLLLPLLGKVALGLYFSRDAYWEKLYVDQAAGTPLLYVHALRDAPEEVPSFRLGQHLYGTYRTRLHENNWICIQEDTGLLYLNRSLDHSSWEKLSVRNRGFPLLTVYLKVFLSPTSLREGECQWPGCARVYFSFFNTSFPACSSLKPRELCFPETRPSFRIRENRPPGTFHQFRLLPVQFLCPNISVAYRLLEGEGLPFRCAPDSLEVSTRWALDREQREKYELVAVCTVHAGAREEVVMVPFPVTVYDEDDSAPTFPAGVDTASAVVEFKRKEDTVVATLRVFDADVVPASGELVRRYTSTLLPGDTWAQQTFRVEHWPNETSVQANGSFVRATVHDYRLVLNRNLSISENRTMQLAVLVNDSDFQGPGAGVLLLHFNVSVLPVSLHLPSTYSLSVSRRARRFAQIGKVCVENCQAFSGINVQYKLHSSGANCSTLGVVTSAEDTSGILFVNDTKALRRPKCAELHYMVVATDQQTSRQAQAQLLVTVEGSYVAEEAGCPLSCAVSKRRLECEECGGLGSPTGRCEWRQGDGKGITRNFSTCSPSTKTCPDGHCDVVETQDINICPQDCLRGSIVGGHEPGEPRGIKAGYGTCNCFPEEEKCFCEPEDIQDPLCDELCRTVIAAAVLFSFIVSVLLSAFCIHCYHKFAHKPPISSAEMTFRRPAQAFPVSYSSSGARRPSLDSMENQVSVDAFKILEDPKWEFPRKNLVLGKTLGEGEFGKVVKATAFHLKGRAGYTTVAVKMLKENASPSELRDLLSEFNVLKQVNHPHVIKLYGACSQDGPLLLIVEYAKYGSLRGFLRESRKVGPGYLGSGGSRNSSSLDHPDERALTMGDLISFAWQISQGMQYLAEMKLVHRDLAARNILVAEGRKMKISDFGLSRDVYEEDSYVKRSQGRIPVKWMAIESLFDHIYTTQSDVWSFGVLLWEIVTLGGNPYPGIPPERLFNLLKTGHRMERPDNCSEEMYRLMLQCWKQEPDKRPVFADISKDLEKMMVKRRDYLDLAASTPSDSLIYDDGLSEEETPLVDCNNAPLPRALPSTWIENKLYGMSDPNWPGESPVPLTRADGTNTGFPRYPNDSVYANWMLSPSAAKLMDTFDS
# From the text: (c) In Vitro Screening Experiment—CellTiter-Glo Luminescence Assay for Testing the Inhibitory Activity of Compounds Against Ba/F3-KIF5B-RET Cell Experimental Procedure: 1. The mammalian cell expression vector containing human KIF5B-RET cDNA was introduced into Ba/F3 cells using the Neon® transfection system method, and the surviving clones screened by puromycin were subjected to cell growth inhibitory function experiments and Western blotting to verify cell lines with stable and high expression of RET. 2. […] 3. The test compound (5 mM stock) was diluted 2.5 folds to 2 mM with 100% dimethyl sulfoxide; and the compound was diluted into 10 concentrations at an equal ratio of 1:3 in a 384-well dilution plate. 4. […] 6. […] 7. By fitting the data with XLFit 5.0 based on the parameters formula, the IC50 value was calculated as: Y=Bottom+(Top−Bottom)/(1+10^((Log IC50−X)*HillSlope)).
# RET = RET (Homo sapiens, UniProt P07949); experiment: HTRF method for testing the inhibitory activity of compounds against RET; format: biochemical; conditions: IC50 by nonlinear regression, read-out: RET kinase activity
# RET, sequence (P07949 29-1114): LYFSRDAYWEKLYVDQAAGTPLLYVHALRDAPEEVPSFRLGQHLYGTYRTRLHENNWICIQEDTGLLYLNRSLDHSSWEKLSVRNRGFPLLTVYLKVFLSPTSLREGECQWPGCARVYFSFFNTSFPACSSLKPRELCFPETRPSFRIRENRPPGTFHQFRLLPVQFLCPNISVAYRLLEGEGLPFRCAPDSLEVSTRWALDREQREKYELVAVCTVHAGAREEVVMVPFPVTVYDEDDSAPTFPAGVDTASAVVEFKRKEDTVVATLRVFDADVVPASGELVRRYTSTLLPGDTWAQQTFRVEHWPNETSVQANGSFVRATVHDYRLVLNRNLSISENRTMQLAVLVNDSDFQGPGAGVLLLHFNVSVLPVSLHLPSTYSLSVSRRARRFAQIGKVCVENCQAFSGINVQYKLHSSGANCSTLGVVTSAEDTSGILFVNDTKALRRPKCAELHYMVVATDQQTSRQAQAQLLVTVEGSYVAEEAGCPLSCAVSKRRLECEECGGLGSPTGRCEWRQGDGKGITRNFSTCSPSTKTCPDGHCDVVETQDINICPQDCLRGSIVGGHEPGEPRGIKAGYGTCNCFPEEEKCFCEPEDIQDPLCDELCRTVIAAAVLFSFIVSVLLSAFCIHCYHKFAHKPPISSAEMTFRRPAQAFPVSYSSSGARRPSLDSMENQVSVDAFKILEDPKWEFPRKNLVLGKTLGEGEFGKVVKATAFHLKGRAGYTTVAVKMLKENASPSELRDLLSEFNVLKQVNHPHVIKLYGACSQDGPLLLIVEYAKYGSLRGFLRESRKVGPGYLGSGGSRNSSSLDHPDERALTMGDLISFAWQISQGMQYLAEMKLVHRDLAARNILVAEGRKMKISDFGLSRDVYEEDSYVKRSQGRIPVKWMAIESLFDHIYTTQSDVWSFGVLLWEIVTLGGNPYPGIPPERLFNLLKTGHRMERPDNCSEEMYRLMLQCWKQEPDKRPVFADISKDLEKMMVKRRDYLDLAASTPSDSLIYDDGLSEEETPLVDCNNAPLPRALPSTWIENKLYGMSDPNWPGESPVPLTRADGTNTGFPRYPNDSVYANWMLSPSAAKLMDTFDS
# Method: (a) In Vitro Screening Experiment-HTRF Method for Testing the Inhibitory Activity of Compounds Against RET Experimental Procedure: 1. […] 2. The test compound (5 mM stock solution) was diluted 5 folds to 1 mM with 100% dimethyl sulfoxide; the compound was diluted into 10 concentrations at an equal ratio of 1:3 in a 384-well dilution plate. 3. 0.2 μL of the serially diluted compound was added to a 384-well plate using an Echo 550 pipetting system, 2 replicate wells for each concentration, and the final concentration of dimethyl sulfoxide was 0.5% (v/v). […] 6. […] The reaction solution was centrifuged at 1000 g for 30 s, and then sealed, and incubated at room temperature for 30 min. 8. […] 10. […] 11. […] IC50 was calculated with software GraphPad 6.0 by fitting inhibition values and logarithms of compound concentrations to a nonlinear regression (dose response−variable slope).
# VEGFR2 = VEGFR2 (Homo sapiens, UniProt P35968); experiment: HTRF method for testing the inhibitory activity of compounds against VEGFR2; format: biochemical; conditions: IC50 by nonlinear regression, read-out: VEGFR2 kinase activity
# VEGFR2, sequence (P35968 20-1356, species assumed): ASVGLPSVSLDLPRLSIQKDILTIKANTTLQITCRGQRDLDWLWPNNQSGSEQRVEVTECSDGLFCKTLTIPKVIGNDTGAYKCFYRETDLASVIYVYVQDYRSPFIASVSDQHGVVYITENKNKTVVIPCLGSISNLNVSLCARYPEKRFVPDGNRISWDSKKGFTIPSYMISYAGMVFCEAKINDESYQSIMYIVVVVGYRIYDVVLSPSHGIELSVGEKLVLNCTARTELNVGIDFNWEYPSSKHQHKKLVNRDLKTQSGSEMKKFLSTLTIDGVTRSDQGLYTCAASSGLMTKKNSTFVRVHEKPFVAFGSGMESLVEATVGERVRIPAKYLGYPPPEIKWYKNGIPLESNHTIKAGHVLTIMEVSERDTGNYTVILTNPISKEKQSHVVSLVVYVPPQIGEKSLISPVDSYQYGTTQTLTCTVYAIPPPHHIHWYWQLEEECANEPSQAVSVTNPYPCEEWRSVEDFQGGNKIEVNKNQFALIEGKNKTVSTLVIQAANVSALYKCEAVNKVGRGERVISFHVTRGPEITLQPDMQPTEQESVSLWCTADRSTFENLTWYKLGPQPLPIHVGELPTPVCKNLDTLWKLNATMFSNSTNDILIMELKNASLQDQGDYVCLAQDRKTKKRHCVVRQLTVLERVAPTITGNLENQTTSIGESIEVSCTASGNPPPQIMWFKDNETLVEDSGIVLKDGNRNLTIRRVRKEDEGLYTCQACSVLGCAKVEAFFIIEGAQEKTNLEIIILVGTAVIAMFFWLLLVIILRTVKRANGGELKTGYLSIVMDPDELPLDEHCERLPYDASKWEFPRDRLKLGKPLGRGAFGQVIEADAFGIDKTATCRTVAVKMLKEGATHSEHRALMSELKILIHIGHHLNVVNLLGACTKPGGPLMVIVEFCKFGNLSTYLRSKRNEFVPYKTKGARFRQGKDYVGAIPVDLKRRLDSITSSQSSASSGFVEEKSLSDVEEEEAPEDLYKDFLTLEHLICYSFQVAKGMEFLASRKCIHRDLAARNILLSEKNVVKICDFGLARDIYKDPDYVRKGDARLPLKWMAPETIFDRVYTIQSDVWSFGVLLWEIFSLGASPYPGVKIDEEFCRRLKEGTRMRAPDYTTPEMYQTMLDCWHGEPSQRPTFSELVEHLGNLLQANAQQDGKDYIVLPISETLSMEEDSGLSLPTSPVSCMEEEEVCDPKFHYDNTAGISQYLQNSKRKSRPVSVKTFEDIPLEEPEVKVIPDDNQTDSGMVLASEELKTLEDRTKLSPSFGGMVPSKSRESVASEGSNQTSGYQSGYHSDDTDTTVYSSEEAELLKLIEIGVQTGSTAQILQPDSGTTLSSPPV
# Method: (b) In Vitro Screening Experiment—HTRF Method for Testing the Inhibitory Activity of Compounds Against VEGFR2 Experimental Procedure: 1. […] The test compound (5 mM stock solution) was diluted 5 folds to 1 mM with 100% dimethyl sulfoxide; the compound was diluted into 10 concentrations at an equal ratio of 1:3 in a 384-well dilution plate. 3. […] 6. […] The reaction solution was centrifuged at 1000 g for 30 s, and then sealed, and incubated at room temperature for 40 min. 8. […] 10. […] 11. […] 12. IC50 was calculated with software GraphPad 6.0 by fitting inhibition values and logarithms of compound concentrations to a nonlinear regression (dose response−variable slope).
SMILES,GI50 (Ba/F3-KIF5B-RET cell),IC50 (RET),IC50 (VEGFR2)
"C[C@H](Nc1ccc(-c2cc(OCC(C)(C)O)cn3ncc(C#N)c23)cn1)c1ccc(-n2cc(F)cn2)cc1 [Compound 16, (S)-4-(6-((1-(4-(4-fluoro-1H-pyrazol-1-yl)phenyl)ethyl)amino)pyridin-3-yl)-6-(2-hydroxy-2-methylpropoxy)pyrazolo[1,5-a]pyridine-3-carbonitrile]",35.5 nM,1.63 nM,15.6 nM
"C[C@@H](c1ccc(-n2cc(F)cn2)cc1)N(C)c1ccc(-c2cc(OCC(C)(C)C#N)cn3ncc(C#N)c23)cn1 [Compound 17, (S)-6-(2-cyano-2-methylpropoxy)-4-(6-((1-(4-(4-fluoro-1H-pyrazol-1-yl)phenyl)ethyl)(methyl)amino)pyridin-3-yl)pyrazolo[1,5-a]pyridine-3-carbonitrile]",184 nM,18.4 nM,1210 nM
"C[C@@H](c1ccc(-n2cc(F)cn2)nc1)N(C)c1ccc(-c2cc(OCC(C)(C)C#N)cn3ncc(C#N)c23)cn1 [Compound 18, (S)-6-(2-cyano-2-methylpropoxy)-4-(6-((1-(6-(4-fluoro-1H-pyrazol-1-yl)pyridine-3-yl)ethyl)(methyl)amino)pyridin-3-yl)pyrazolo[1,5-a]pyridine-3-carbonitrile]",40 nM,0.4 nM,135 nM
"C[C@@H](c1ccc(-n2cc(F)cn2)nc1)N(C)c1ccc(-c2cc(N3CCN(C)CC3)cn3ncc(C#N)c23)cn1 [Compound 19, (S)-4-(6-((1-(6-(4-fluoro-1H-pyrazol-1-yl)pyridin-3-yl)ethyl)(methyl)amino)pyridine-3-yl)-6-(4-methylpiperazin-1-yl)pyrazolo[1,5-a]pyridine-3-carbonitrile]",41 nM,0.42 nM,41.1 nM
"C[C@@H](c1ccc(-n2cc(F)cn2)nc1)N(C)c1ccc(-c2cc(C#CC(C)(C)O)cn3ncc(C#N)c23)cn1 [Compound 27, (S)-4-(6-((1-(6-(4-fluoro-1H-pyrazol-1-yl)pyridin-3-yl)ethyl)(methyl)amino)pyridine-3-yl)-6-(3-hydroxy-3-methyl-1-yn-1-yl)pyrazolo[1,5-a]pyridine-3-carbonitrile]",43.8 nM,1.33 nM,21.9 nM
"C[C@@H](c1ccc(-n2cc(F)cn2)nc1)N(C)c1ccc(-c2cc(OCC3CC3)cn3ncc(C#N)c23)cn1 [Compound 28, (S)-6-(cyclopropylmethoxy)-4-(6-((1-(6-(4-fluoro-1H-pyrazol-1-yl)pyridin-3-yl)ethyl)(methyl)amino)pyridin-3-yl)pyrazolo[1,5-a]pyridine-3-carbonitrile]",177 nM,2.25 nM,1190 nM
"C[C@@H](c1ccc(-n2cc(F)cn2)nc1)N(C)c1ccc(-c2cc(OCC#N)cn3ncc(C#N)c23)cn1 [Compound 32, (S)-4-(6-((1-(6-(4-fluoro-1H-pyrazol-1-yl)pyridin-3-yl)ethyl)(methyl)amino)pyridine-3-yl)-6-cyanomethoxypyrazolo[1,5-a]pyridine-3-carbonitrile]",224 nM,4.23 nM,> 5000 nM
"CC(C)COc1cc(-c2ccc(N(C)[C@@H](C)c3ccc(-n4cc(F)cn4)nc3)nc2)c2c(C#N)cnn2c1 [Compound 33, (S)-4-(6-((1-(6-(4-fluoro-1H-pyrazol-1-yl)pyridin-3-yl)ethyl)(methyl)amino)pyridine-3-yl)-6-isobutoxypyrazolo[1,5-a]pyridine-3-carbonitrile]",413 nM,3.04 nM,> 5000 nM
"C[C@@H](c1ccc(-n2cc(F)cn2)nc1)N(C)c1ccc(-c2cc(OCC(F)F)cn3ncc(C#N)c23)cn1 [Compound 34, (S)-4-(6-((1-(6-(4-fluoro-1H-pyrazol-1-yl)pyridin-3-yl)ethyl)(methyl)amino)pyridine-3-yl)-6-(2,2-difluoroethoxy)pyrazolo[1,5-a]pyridine-3-carbonitrile]",119 nM,1.55 nM,128 nM
"C[C@@H](c1ccc(-n2cc(F)cn2)nc1)N(C)c1ccc(-c2cc(OCC(F)(F)F)cn3ncc(C#N)c23)cn1 [Compound 35, (S)-4-(6-((1-(6-(4-fluoro-1H-pyrazol-1-yl)pyridin-3-yl)ethyl)(methyl)amino)pyridine-3-yl)-6-(2,2,2-trifluoroethoxy)pyrazolo[1,5-a]pyridine-3-carbonitrile]",396 nM,6.94 nM,819 nM
"CC(O)COc1cc(-c2ccc(N(C)[C@@H](C)c3ccc(-n4cc(F)cn4)nc3)nc2)c2c(C#N)cnn2c1 (stereo partly drawn) [Compound 36, (S)-4-(6-((1-(6-(4-fluoro-1H-pyrazol-1-yl)pyridin-3-yl)ethyl)(methyl)amino)pyridine-3-yl)-6-(2-hydroxypropoxy)pyrazolo[1,5-a]pyridine-3-carbonitrile]",19.9 nM,2.76 nM,47 nM
"CCCOc1cc(-c2ccc(N(C)[C@@H](C)c3ccc(-n4cc(F)cn4)nc3)nc2)c2c(C#N)cnn2c1 [Compound 39, (S)-4-(6-((1-(6-(4-fluoro-1H-pyrazol-1-yl)pyridin-3-yl)ethyl)(methyl)amino)pyridine-3-yl)-6-propoxypyrazolo[1,5-a]pyridine-3-carbonitrile]",182 nM,1.93 nM,> 5000 nM

# Now those with a lower GI50 (Ba/F3-KIF5B-RET cell), led by results:
GI50 (Ba/F3-KIF5B-RET cell),IC50 (RET),IC50 (VEGFR2),SMILES
18.1 nM,0.82 nM,74.9 nM,"C[C@@H](c1ccc(-n2cc(F)cn2)nc1)N(C)c1ccc(-c2cc(N3CCC(C)(O)CC3)cn3ncc(C#N)c23)cn1 [Compound 23, (S)-4-(6-((1-(6-(4-fluoro-1H-pyrazol-1-yl)pyridin-3-yl)ethyl)(methyl)amino)pyridine-3-yl)-6-(4-hydroxy-4-methylpiperidin-1-yl)pyrazolo[1,5-a]pyridine-3-carbonitrile]"
15.1 nM,0.47 nM,175 nM,"CCOc1cc(-c2ccc(N(C)[C@@H](C)c3ccc(-n4cc(F)cn4)nc3)nc2)c2c(C#N)cnn2c1 [Compound 30, (S)-4-(6-((1-(6-(4-fluoro-1H-pyrazol-1-yl)pyridin-3-yl)ethyl)(methyl)amino)pyridine-3-yl)-6-ethoxypyrazolo[1,5-a]pyridine-3-carbonitrile]"
14.7 nM,0.54 nM,61.1 nM,"C[C@@H](c1ccc(-n2cc(F)cn2)nc1)N(C)c1ccc(-c2cc(N3CCC4(CC3)COC4)cn3ncc(C#N)c23)cn1 [Compound 25, (S)-4-(6-((1-(6-(4-fluoro-1H-pyrazol-1-yl)pyridin-3-yl)ethyl)(methyl)amino)pyridine-3-yl)-6-(2-oxo-7-azaspiro[3.5]nonan-7-yl)pyrazolo[1,5-a]pyridine-3-carbonitrile]"
13.5 nM,0.25 nM,10.1 nM,C[C@@H](c1ccc(-n2cc(F)cn2)nc1)N(C)c1ccc(-c2cc(OCCO)cn3ncc(C#N)c23)cn1 [Compound 20]
7.4 nM,0.245 nM,33 nM,"C[C@@H](c1ccc(-n2cc(F)cn2)nc1)N(C)c1ccc(-c2cc(N3CCOCC3)cn3ncc(C#N)c23)cn1 [Compound 26, (S)-4-(6-((1-(6-(4-fluoro-1H-pyrazol-1-yl)pyridin-3-yl)ethyl)(methyl)amino)pyridine-3-yl)-6-morpholinopyrazolo[1,5-a]pyridine-3-carbonitrile]"
5.85 nM,0.99 nM,64.6 nM,C[C@@H](c1ccc(-n2cc(F)cn2)nc1)N(C)c1ccc(-c2cc(N3CC(C)(C#N)C3)cn3ncc(C#N)c23)cn1 [Compound 24]
5.14 nM,0.56 nM,7.39 nM,"CCn1cc(-c2cc(-c3ccc(N(C)[C@@H](C)c4ccc(-n5cc(F)cn5)nc4)nc3)c3c(C#N)cnn3c2)cn1 [Compound 38, (S)-6-(1-ethyl-1H-pyrazol-4-yl)-4-(6-((1-(6-(4-fluoro-1H-pyrazol-1-yl)pyridine-3-yl)ethyl)(methyl)amino)pyridin-3-yl)pyrazolo[1,5-a]pyridine-3-carbonitrile]"
0.75 nM,0.36 nM,3.29 nM,"C[C@@H](c1ccc(-n2cc(F)cn2)nc1)N(C)c1ccc(-c2cc(-c3cnn(C)c3)cn3ncc(C#N)c23)cn1 [Compound 29, (S)-6-(1-methyl-1H-pyrazol-4-yl)-4-(6-((1-(6-(4-fluoro-1H-pyrazol-1-yl)pyridine-3-yl)ethyl)(methyl)amino)pyridin-3-yl)pyrazolo[1,5-a]pyridine-3-carbonitrile]"
